According to article PMC9176062, “Phase Ib study of combinations of avadomide (CC‐122), CC‐223, CC‐292, and rituximab in patients with relapsed/refractory diffuse large B‐cell lymphoma” (EJHaem, 2022):

Assays:
[1] = system: patients with R/R DLBCL; experiment: Treatment duration, modification, and exposure; assay type: in vivo; conditions: for patients with dose reductions of the drug: all patients who received the drug
Protocol: CC‐122 hydrochloride, referred to here as CC‐122, as an active pharmaceutical ingredient in capsule (AIC) formulation, was administered orally once daily (QD). An alternate intermittent schedule of CC‐122 QD for five of every seven consecutive days (5/7), which improved tolerability and reduced the frequency and severity of neutropenia in a study of CC‐122 monotherapy in DLBCL, was also explored. CC‐292 was administered orally twice daily (BID) and CC‐223 was administered orally QD. Rituximab was administered on day 8 of cycle 1, day 1 of cycles 2–6, and day 1 of every third cycle thereafter. Patients in arm A received CC‐122 and CC‐223 with or without rituximab (starting at CC‐122 2 mg QD and CC‐223 20 mg QD), patients in arm B received CC‐122 plus CC‐292 with or without rituximab (starting at CC‐122 2 mg QD and CC‐292 500 mg BID), patients in arm C were treated with CC‐223 and CC‐292 (starting at CC‐223 20 mg QD and CC‐292 500 mg BID), and those in arm D received CC‐122 plus rituximab (starting at CC‐122 2 mg QD). In arm D, a CC‐122 3 mg formulated capsule was introduced with the same strength as CC‐122 3 mg AIC. Each dose level was cleared before the next was started. If unacceptable toxicity occurred at the initial dose level, dose reductions for CC‐122 (1.5 mg QD and 1 mg QD) and CC‐223 (15 mg QD) were allowed; no starting dose reductions for CC‐292 were planned. For arm A, the Safety Review Committee (SRC) determined which of the two drugs in the doublet to reduce. For arms B and D, the CC‐122 dose was reduced and for arm C, the CC‐223 dose was reduced. Assignment of patients to study arms was at the discretion of the investigator and based on slot availability per the study design.
Patients who experienced dose‐limiting toxicity (DLT) after receiving ≥1 dose of study treatment or those who received ≥80% of planned doses of CC‐122, CC‐223, CC‐292, and rituximab during cycle 1 without experiencing a DLT were considered DLT‐evaluable. If zero out of ≥3 or ≤1 out of six evaluable patients in a cohort experienced a DLT during cycle 1 in parallel dose cohorts, then dose escalation could occur. DLTs are defined in the Supplementary Materials; individual investigators performed response assessments and determined DLTs. The NTD was defined as the dose level at which ≥2 of six evaluable patients in a cohort experienced a DLT during cycle 1. […] During cycle 1, any adverse event (AE) that led to dose reduction was considered a DLT. Patients could resume CC‐122 at a reduced dose only if they recovered to grade ≤1 within 14 days of dose interruption; two dose reductions were allowed before the patient was withdrawn from the study. Dose reductions were permitted for CC‐122, CC‐223, and CC‐292; no dose reductions were allowed for rituximab, but treatment could be discontinued at the discretion of the investigator. […] For arms A, B, and D, CC‐122 dosing was modified to the intermittent 5/7‐day schedule based on SRC review and escalated until the MTD/RP2D was established. Treatment was given until disease progression, unacceptable toxicity, or patient/physician decision to withdraw consent.
^aTreatment duration defined as date of last derived dose – date of first dose + 1.
^bDefined as the ratio of actual dose received to planned dose over the treatment period.

[2] = system: p4EBP1; experiment: mTOR signaling pathway biomarker p4EBP1 in blood; assay type: in vivo, human
Protocol: (§1) AEs were assessed according to the National Cancer Institute Common Terminology Criteria for AEs, version 4.03, up to 28 days after the last treatment. Blood samples for PK analysis were collected on days 15 to 28, predose, and at 1.5 and 3 h post‐dose on days 1 and 15 of cycle 1 for all dose cohorts. Additional blood samples were collected on day 15 from patients in dose level 2 of arm C to examine CC‐223 and CC‐292 steady‐state PK. Pharmacodynamic biomarkers of each novel agent were explored at baseline and cycle 1, day 1 (pre‐dose, and at 1.5 and 3 h) and cycle 1, day 15 (pre‐dose, and at 1.5 and 3 h), including cereblon modulation substrates in B and T cells in patients treated with CC‐122 and mTOR signaling pathway biomarkers (e.g., p4EBP1 and pAKT) in patients treated with CC‐223. Tumor assessments were performed at screening and at the end of even‐numbered cycles through cycle 6, then every three cycles through cycle 12, and every 6 months thereafter. Responses were assessed by the investigator per International Working Group 2007 criteria.
(§2) Safety analyses were performed on all patients who received ≥1 dose of study treatment (safety population). The PK population comprised all patients who took ≥1 dose of study treatment and had ≥1 measured drug concentration. […] The biomarker‐evaluable population comprised all patients who took ≥1 dose of study treatment and had ≥1 pharmacodynamic assessment. […] PK parameters were calculated using actual times relative to the most recent administration. The median duration of response (DOR) and median PFS were calculated per the Kaplan‐Meier method.
(§3) Per cent change from baseline in Aiolos in CD3+ T cells (A) and CD19+ B cells (B) and in p4EBP1 (C) and pAKT (D) at 3 h post‐dose on day 1 of cycle 1 (biomarker‐evaluable population). The change in Aiolos expression in CD3+ T cells and CD19+ B cells was calculated within each avadomide‐ and CC‐223‐containing arm. *p ≤ 0.05 versus baseline; **p ≤ 0.01 versus baseline; ***p ≤ 0.001 versus baseline; DL, dose level; MEFL, molecules of equivalent fluorescence label; NS, not significant

[3] = system: pAKT; experiment: mTOR signaling pathway biomarker pAKT in blood; assay type: in vivo, human
Protocol: as §1, §2, §3

[4] = Steady‐state plasma pharmacokinetics; assay type: in vivo; conditions: human, oral, CC‐223 + CC‐292 (arm C dose level 2, day 15); for clearance: read-out: apparent plasma clearance (converted); for Vd: read-out: mean apparent volume of distribution; for Tmax: read-out: median Tmax; for half-life: read-out: terminal half‐life (converted)
Protocol: as §1
Safety analyses were performed on all patients who received ≥1 dose of study treatment (safety population). The PK population comprised all patients who took ≥1 dose of study treatment and had ≥1 measured drug concentration. […] The biomarker‐evaluable population comprised all patients who took ≥1 dose of study treatment and had ≥1 pharmacodynamic assessment. Safety and efficacy analyses were based on the safety population except where noted (PK and biomarkers). PK parameters were calculated using actual times relative to the most recent administration. The median duration of response (DOR) and median PFS were calculated per the Kaplan‐Meier method.
FIGURE S3 Summary of pharmacokinetic parameters and mean plasma concentration-time profiles of (A) CC-223 and (B) CC-292. Summary of pharmacokinetic parameters and mean plasma concentration-time profiles of (A) CC-223 and (B) CC-292. […] Data are geometric means (CV%) except for Tmax, for which medians (min, max) are presented.

[5] = system: R/R DLBCL; conditions: cited from earlier work; for CR rates: monotherapy, third‐line setting
[6] = Overall (all arms with the drug)
[7] = arm A (with CC‐122), 20 mg of CC‐223, 3 h post‐dose vs baseline
[8] = arm C (with CC‐292), 20 mg of CC‐223, 3 h post‐dose
[9] = arm C (with CC‐292), CC‐223 15 mg
[10] = patients with a complete response

With CO[C@H]1CC[C@H](N2C(=O)CNc3ncc(-c4ccc(C(C)(C)O)nc4)nc32)CC1 [CC‐223] the “≥1 dose interruption” value ([1]; Arm A (Avadomide + CC-223 ± R)) was 25 (80.6) n (%), the “≥1 dose interruption: Adverse event” value ([1]; Arm A (Avadomide + CC-223 ± R)) was 23 (74.2) n (%) and the “≥1 dose interruption: Other” value ([1]; Arm A (Avadomide + CC-223 ± R)) was 10 (32.3) n (%). The “≥1 dose interruption: Per protocol” value ([1]; Arm A (Avadomide + CC-223 ± R)) was 1 (3.2) n (%), the “≥1 dose reduction” value ([1]; Arm A (Avadomide + CC-223 ± R)) was 10 (32.3) n (%) and the “≥1 dose reduction: Adverse event” value ([1]; Arm A (Avadomide + CC-223 ± R)) was 7 (22.6) n (%). For the same molecule, the “≥1 dose reduction: Other” value ([1]; Arm A (Avadomide + CC-223 ± R)) was 2 (6.5) n (%), the “≥1 dose reduction: Per protocol” value ([1]; Arm A (Avadomide + CC-223 ± R)) was 0 n (%) and the “≥1 dose interruption” value ([1]; Arm C (CC-292 + CC-223)) was 9 (64.3) n (%). For the same molecule, the “≥1 dose interruption: Adverse event” value ([1]; Arm C (CC-292 + CC-223)) was 8 (57.1) n (%), the “≥1 dose interruption: Other” value ([1]; Arm C (CC-292 + CC-223)) was 3 (21.4) n (%) and the “≥1 dose interruption: Per protocol” value ([1]; Arm C (CC-292 + CC-223)) was 1 (7.1) n (%). For the same molecule, the “≥1 dose reduction” value ([1]; Arm C (CC-292 + CC-223)) was 1 (7.1) n (%), the “≥1 dose reduction: Adverse event” value ([1]; Arm C (CC-292 + CC-223)) was 1 (7.1) n (%) and the “≥1 dose reduction: Other” value ([1]; Arm C (CC-292 + CC-223)) was 0 n (%). For the same molecule, the “≥1 dose reduction: Per protocol” value ([1]; Arm C (CC-292 + CC-223)) was 0 n (%), the “≥1 dose interruption” value [1, 6] was 34 (75.6) n (%) and the “≥1 dose interruption: Adverse event” value [1, 6] was 31 (68.9) n (%). The “≥1 dose interruption: Other” value [1, 6] was 13 (28.9) n (%), the “≥1 dose interruption: Per protocol” value [1, 6] was 2 (4.4) n (%) and the “≥1 dose reduction” value [1, 6] was 11 (24.4) n (%). For the same molecule, the “≥1 dose reduction: Adverse event” value [1, 6] was 8 (17.8) n (%), the “≥1 dose reduction: Other” value [1, 6] was 2 (4.4) n (%) and the “≥1 dose reduction: Per protocol” value [1, 6] was 0 n (%). For the same molecule, the “patients with dose reductions of the drug” value [1] was 24.4%, the “median reduction in p4EBP1 levels” value [2, 7] was “approximately 30%” and the “increase of p4EBP1 levels from baseline” value [2, 8] was “approximately 8%”. For the same molecule, the “reduction of p4EBP1” value [2, 9] was “approximately 30%”, the “median reduction in pAKT levels” value [3, 7] was ~70% and the “median reduction of pAKT levels” value [3, 8] was “approximately 50%”. The “reduction of pAKT levels” value [3, 9] was “approximately 50%”, the clearance [4] was ~405 mL/min and the Vd [4] was 127 L. The Tmax [4] was 1.5 h and the half-life [4] was ~3.6 h.
In the case of “loncastuximab tesirine [reference compound]”, the CR rates [5] is given as 24%.
In the case of axicabtagene ciloleucel, the “24‐month PFS” value [5, 10] is listed as 72%.
For C=CC(=O)Nc1cccc(Nc2nc(Nc3ccc(OCCOC)cc3)ncc2F)c1 [CC‐292], the “≥1 dose interruption” value ([1]; Arm B (Avadomide + CC-292 ± R)) was 14 (51.9) n (%), the “≥1 dose interruption: Adverse event” value ([1]; Arm B (Avadomide + CC-292 ± R)) was 5 (18.5) n (%) and the “≥1 dose interruption: Other” value ([1]; Arm B (Avadomide + CC-292 ± R)) was 8 (29.6) n (%). The “≥1 dose interruption: Per protocol” value ([1]; Arm B (Avadomide + CC-292 ± R)) was 1 (3.7) n (%), the “≥1 dose reduction” value ([1]; Arm B (Avadomide + CC-292 ± R)) was 12 (44.4) n (%) and the “≥1 dose reduction: Adverse event” value ([1]; Arm B (Avadomide + CC-292 ± R)) was 5 (18.5) n (%). The “≥1 dose reduction: Other” value ([1]; Arm B (Avadomide + CC-292 ± R)) was 8 (29.6) n (%), the “≥1 dose reduction: Per protocol” value ([1]; Arm B (Avadomide + CC-292 ± R)) was 1 (3.7) n (%) and the “≥1 dose interruption” value ([1]; Arm C (CC-292 + CC-223)) was 6 (42.9) n (%). For the same molecule, the “≥1 dose interruption: Adverse event” value ([1]; Arm C (CC-292 + CC-223)) was 3 (21.4) n (%), the “≥1 dose interruption: Other” value ([1]; Arm C (CC-292 + CC-223)) was 1 (7.1) n (%) and the “≥1 dose interruption: Per protocol” value ([1]; Arm C (CC-292 + CC-223)) was 1 (7.1) n (%). The “≥1 dose reduction” value ([1]; Arm C (CC-292 + CC-223)) was 4 (28.6) n (%), the “≥1 dose reduction: Adverse event” value ([1]; Arm C (CC-292 + CC-223)) was 3 (21.4) n (%) and the “≥1 dose reduction: Other” value ([1]; Arm C (CC-292 + CC-223)) was 1 (7.1) n (%). The “≥1 dose reduction: Per protocol” value ([1]; Arm C (CC-292 + CC-223)) was 1 (7.1) n (%), the “≥1 dose interruption” value [1, 6] was 20 (48.8) n (%) and the “≥1 dose interruption: Adverse event” value [1, 6] was 8 (19.5) n (%). The “≥1 dose interruption: Other” value [1, 6] was 9 (22.0) n (%), the “≥1 dose interruption: Per protocol” value [1, 6] was 2 (4.9) n (%) and the “≥1 dose reduction” value [1, 6] was 16 (39.0) n (%). For the same molecule, the “≥1 dose reduction: Adverse event” value [1, 6] was 8 (19.5) n (%), the “≥1 dose reduction: Other” value [1, 6] was 9 (22.0) n (%) and the “≥1 dose reduction: Per protocol” value [1, 6] was 2 (4.9) n (%). The “patients with dose reductions of the drug” value [1] was 39.0%, the clearance [4] was ~1170 mL/min and the Vd [4] was 334 L. The Tmax [4] was 1.5 h and the half-life [4] was ~3.3 h.
In the case of tisagenlecleucel, the “36‐month PFS” value ([5]; patients with a complete response at 3 months) is listed as 70%.
In the case of lisocabtagene maraleucel, the “estimated 12‐month PFS rate” value [5, 10] is listed as 65%.
In the case of O=C(/C=C\n1cnc(-c2cc(C(F)(F)F)cc(C(F)(F)F)c2)n1)NNc1cnccn1 [selinexor, reference compound], the CR rates [5] is given as 12%.
